According to patent publication US10208074B2, “Pyrazole compounds and method for making and using the compounds” (Rigel Pharmaceuticals, Inc., priority 2015, dated 2019):
Structures can show the parent of a compound that is named as a salt. Where two headings read alike, the source gives them in different places.

Legend:
[1] = tested on: IL-23 (p19/p40); assay: IL23-p19 ELISA, Dendritic, LPS (compound screening using DC cells); type: cell-based, Human
How it was run: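 IL-23 in supernatants quantified by sandwich ELISA (anti-p19 capture, biotinylated anti-p40 detection, chemiluminescent readout) after 18 h LPS (1 μg/ml) stimulation. Cells were monocyte-derived DCs (GM-CSF/IL-4, 7 d), IFNγ-primed 24 h and given compound 1 h before LPS; viability by CellTiter Glo.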

[2] = tested on: IL-23p19; assay: LPS induced IL23p19 in THP-1 cells (with IFNγ primed) assay; type: cell-based, Human
How it was run: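 Readout is secreted IL-23p19, quantified by chemiluminescent sandwich ELISA after 18 h LPS (1 ug/mL) stimulation of THP-1 cells that had been IFNγ-primed (50 ng/mL, ~18 h) and given compound 1 h beforehand at 37 °C. EC50 derived by curve fit; cytotoxicity tracked with Cell Titer Glo.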

[3] = Homo sapiens, 18 h, PBMC-derived DC cells, IFNγ primed, LPS 1 μg/ml, 18 hours, 10 pt, read-out: IL23-p19 ELISA, Dendritic, LPS, 10 pt, EC50
[4] = Homo sapiens, THP-1, 18 h, THP-1 cells, IFNγ primed, LPS 1 ug/mL, 18 hours, 10 pt, read-out: IL23-p19 ELISA, THP1-IFNy, LPS, 10 pt EC50
[5] = PBMC-derived DC cells, IFNγ primed, LPS 1 μg/ml, 18 hours, 10 pt, read-out: IL23-p19 ELISA, Dendritic, LPS, 10 pt, EC50

SMILES | EC50 [1, 3] [µM] | EC50 [2, 4] [µM] | also measured
CCO[C@H]1C[C@H](n2cc(NC(=O)c3ccc(-c4cn[nH]c4)o3)c(-c3ccccn3)n2)C1 [Compound I-27, N-(1-((1,3-trans)-3-ethoxycyclobutyl)-3-(pyridin-2-yl)-1H-pyrazol-4-yl)-5-(1H-pyrazol-4-yl)furan-2-carboxamide] | 0.0158 | 0.159 | 
O=C(Nc1cn(C2CCOCC2)nc1-c1nccs1)c1csc(-c2cn[nH]c2)n1 [II-111, 2-(1H-pyrazol-4-yl)-N-(1-(tetrahydro-2H-pyran-4-yl)-3-(thiazol-2-yl)-1H-pyrazol-4-yl)thiazole-4-carboxamide] | 0.0343 | 0.0651 | 
Cn1cc(NC(=O)c2ccc(-c3cnn(COP(=O)(O)O)c3)o2)c(-c2ccccn2)n1 [Compound I-82, Sodium [4-{5-((1-Methyl-3-(pyridine-2-yl)-1H-pyrazol-4-yl)carbamoyl)furan-2-yl}-1H-pyrazol-1-yl]methyl phosphate] |  |  | EC50 ([1]; PBMC-derived DC cells, IFNγ primed, LPS 1 μg/ml, 18 hours, 10 pt, phosphate, read-out: IL23-p19 ELISA, Dendritic, LPS, 10 pt, EC50): 0.78 µM; EC50 ([2]; THP-1 cells, IFNγ primed, LPS 1 ug/mL, 18 hours, 10 pt, phosphate, read-out: IL23-p19 ELISA, THP1-IFNy, LPS, 10 pt EC50): 0.205 µM
COCCn1cc(NC(=O)c2ccc(-c3cnn(C(=O)[C@@H](NC(=O)OC(C)(C)C)C(C)C)c3)o2)c(-c2ccccn2)n1 [Compound I-20, tert-butyl (S)-(1-(4-(5-((1-(2-methoxyethyl)-3-(pyridin-2-yl)-1H-pyrazol-4-yl)carbamoyl)furan-2-yl)-1H-pyrazol-1-yl)-3-methyl-1-oxobutan-2-yl)carbamate] | 0.195 | 0.167 | 
CCO[C@H]1C[C@@H](n2cc(NC(=O)c3csc(-c4cnn(COCC[Si](C)(C)C)c4F)n3)c(-c3ccccn3)n2)C1 [II-71, N-(1-((1s,3s)-3-ethoxycyclobutyl)-3-(pyridin-2-yl)-1H-pyrazol-4-yl)-2-(5-fluoro-1-((2-(trimethylsilyl)ethoxy)methyl)-1H-pyrazol-4-yl)thiazole-4-carboxamide] | 10.4 | 49.6 | 
O=C(Nc1cn(C2CN(C(=O)NC3CC3)C2)nc1-c1ccccn1)c1ccc(-c2cn[nH]c2)o1 [Compound I-87, 3-[4-{5-(1H-Pyrazol-4-yl)furan-2-carboxamido}-3-(pyridine-2-yl)-1H-pyrazol-1-yl]-N-cyclopropylazetidine-1-carboxamide, formate salt] | 0.105 | 0.0433 | 
O=C(Nc1cn([C@H]2CC[C@H](NCC(F)F)CC2)nc1-c1ncccn1)c1csc(-c2cn[nH]c2)n1 [II-179, N-(1-((1r,4r)-4-((2,2-difluoroethyl)amino)cyclohexyl)-3-(pyrimidin-2-yl)-1H-pyrazol-4-yl)-2-(1H-pyrazol-4-yl)thiazole-4-carboxamide] | 0.0748 | 0.0125 | 
O=C(Nc1cn(CCN2CCOCC2)nc1-c1ccccn1)c1csc(-c2cn[nH]c2)n1 [II-60, N-(1-(2-morpholinoethyl)-3-(pyridin-2-yl)-1H-pyrazol-4-yl)-2-(1H-pyrazol-4-yl)thiazole-4-carboxamide] | 0.0533 | 0.0473 | 
CC(C)(C)OC(=O)N1CC(n2cc(NC(=O)c3ccc(-c4cn[nH]c4)o3)c(-c3ccccn3)n2)C1 [Compound I-70, tert-Butyl-3-[4-{5-(1H-pyrazole-4-yl)furan-2-carboxamido}-3-(pyridine-2-yl)-1H-pyrazol-1-yl]azetidine-1-carboxylate, formate salt] |  |  | EC50 ([1]; PBMC-derived DC cells, IFNγ primed, LPS 1 μg/ml, 18 hours, 10 pt, formate salt, read-out: IL23-p19 ELISA, Dendritic, LPS, 10 pt, EC50): 0.0283 µM; EC50 ([2]; THP-1 cells, IFNγ primed, LPS 1 ug/mL, 18 hours, 10 pt, formate salt, read-out: IL23-p19 ELISA, THP1-IFNy, LPS, 10 pt EC50): 0.366 µM
CN1CCN(CCn2cc(NC(=O)c3csc(-c4cn[nH]c4)n3)c(-c3ccccn3)n2)CC1 [II-61, N-(1-(2-(4-methylpiperazin-1-yl)ethyl)-3-(pyridin-2-yl)-1H-pyrazol-4-yl)-2-(1H-pyrazol-4-yl)thiazole-4-carboxamide] | 0.0504 | 0.0225 | 
O=C(Nc1cn([C@H]2C[C@H](OCC(F)(F)F)C2)nc1-c1ccccn1)c1csc(-c2cn[nH]c2)n1 [II-141, 2-(1H-pyrazol-4-yl)-N-(3-(pyridin-2-yl)-1-((trans)-3-(2,2,2-trifluoroethoxy)cyclobutyl)-1H-pyrazol-4-yl)thiazole-4-carboxamide] | 0.0517 | 0.251 | 
CCO[C@H]1C[C@@H](n2cc(NC(=O)c3csc(-c4cnn(COP(=O)(O)O)c4)n3)c(-c3ccccn3)n2)C1 [II-82, (4-(4-((1-((1,3-cis)-3-ethoxycyclobutyl)-3-(pyridin-2-yl)-1H-pyrazol-4-yl)carbamoyl)thiazol-2-yl)-1H-pyrazol-1-yl)methyl phosphate bis-arginine salt] |  |  | EC50 ([1]; Homo sapiens, 18 h, read-out: IL23-p19 ELISA, Dendritic, LPS, 10 pt, EC50 (μM)): 0.176 µM; EC50 ([2]; Homo sapiens, THP-1, 18 h, read-out: IL23-p19 ELISA, THP1-IFNy, LPS, 10 pt EC50 (μM)): 0.0387 µM
Cc1oc(=O)oc1Cn1cc(-c2nc(C(=O)Nc3cn(C)nc3-c3ccccn3)cs2)cn1 [II-4, 2-(1-((5-methyl-2-oxo-1,3-dioxol-4-yl)methyl)-1H-pyrazol-4-yl)-N-(1-methyl-3-(pyridin-2-yl)-1H-pyrazol-4-yl)thiazole-4-carboxamide] | 0.307 | 0.0861 | 
O=C(Nc1cn([C@H]2C[C@@H](OCC(F)(F)F)C2)nc1-c1ccccn1)c1csc(-c2cn[nH]c2)n1 [II-161, 2-(1H-pyrazol-4-yl)-N-(3-(pyridin-2-yl)-1-((cis)-3-(2,2,2-trifluoroethoxy)cyclobutyl)-1H-pyrazol-4-yl)thiazole-4-carboxamide] | 0.482 | 0.112 | 
COCCOCCn1cc(NC(=O)c2ccc(-c3cn[nH]c3)o2)c(-c2nccs2)n1 [Compound I-64, N-(1-(2-(2-methoxyethoxy)ethyl)-3-(thiazol-2-yl)-1H-pyrazol-4-yl)-5-(1H-pyrazol-4-yl)furan-2-carboxamide] | 0.366 | 0.0777 | 
CCO[C@H]1C[C@@H](n2cc(NC(=O)c3csc(-c4cnn(COP(=O)(O)O)c4)n3)c(-c3ncccc3F)n2)C1 [II-163, (4-(4-((1-((cis)-3-ethoxycyclobutyl)-3-(3-fluoropyridin-2-yl)-1H-pyrazol-4-yl)carbamoyl)thiazol-2-yl)-1H-pyrazol-1-yl)methyl dihydrogen phosphate] |  | 0.109 | EC50 [1, 5]: 0.348 µM
O=C(Nc1cn(C2CC(F)(F)C2)nc1-c1ccccn1)c1csc(-c2cn[nH]c2)n1 [II-134, N-(1-(3,3-difluorocyclobutyl)-3-(pyridin-2-yl)-1H-pyrazol-4-yl)-2-(1H-pyrazol-4-yl)thiazole-4-carboxamide] | 0.225 | 0.102 | 
CC(C)(O)Cn1cc(NC(=O)c2csc(-c3cn[nH]c3)n2)c(-c2ccccn2)n1 [II-1, N-(1-(2-hydroxy-2-methylpropyl)-3-(pyridin-2-yl)-1H-pyrazol-4-yl)-2-(1H-pyrazol-4-yl)thiazole-4-carboxamide] | 0.779 | 0.129 | 
CCO[C@H]1C[C@@H](n2cc(NC(=O)c3csc(-c4cnn(C)c4)n3)c(-c3ccccn3)n2)C1 [II-13, N-(1-((1,3-cis)-3-ethoxycyclobutyl)-3-(pyridin-2-yl)-1H-pyrazol-4-yl)-2-(1-methyl-1H-pyrazol-4-yl)thiazole-4-carboxamide] | 10.4 | 4.8 | 
COC1CC(n2cc(NC(=O)c3ccc(-c4cn[nH]c4)o3)c(-c3ccccn3)n2)C1 (stereo not drawn) [Compound I-71, N-{1-(3-Methoxycyclobutyl)-3-(pyridine-2-yl)-1H-pyrazol-4-yl}-5-(1H-pyrazol-4-yl)furan-2-carboxamide, formate salt, Cis isomer] |  |  | EC50 [1, 5]: 0.0225 µM; EC50 ([2]; THP-1 cells, IFNγ primed, LPS 1 ug/mL, 18 hours, 10 pt, read-out: IL23-p19 ELISA, THP1-IFNy, LPS, 10 pt EC50): 0.0265 µM
CC(C)n1cc(NC(=O)c2ccc(-c3cn[nH]c3)o2)c(-c2ccccn2)n1 [Compound I-110, N-(1-isopropyl-3-(pyridin-2-yl)-1H-pyrazol-4-yl)-5-(1H-pyrazol-4-yl)furan-2-carboxamide] | 0.388 | 0.279 | 
CCO[C@H]1C[C@@H](n2cc(NC(=O)c3ccc(-c4cnn(COP(=O)(O)O)c4)o3)c(-c3ccccn3)n2)C1 [Compound I-35, (4-(5-((1-((1,3-cis)-3-ethoxycyclobutyl)-3-(pyridin-2-yl)-1H-pyrazol-4-yl)carbamoyl)furan-2-yl)-1H-pyrazol-1-yl)methyl phosphate bis-sodium salt] | 0.52 | 0.0633 | 
CN1CCN(c2ccc(-c3nn(C)cc3NC(=O)c3ccc(-c4cn[nH]c4)o3)nc2)CC1 [Compound I-106, N-(1-methyl-3-(5-(4-methylpiperazin-1-yl)pyridin-2-yl)-1H-pyrazol-4-yl)-5-(1H-pyrazol-4-yl)furan-2-carboxamide] | 1.22 | 18.9 | 
CCO[C@H]1C[C@@H](n2cc(NC(=O)c3csc(-c4cn[nH]c4)n3)c(-c3cccc(F)n3)n2)C1 [II-160, N-(1-((cis)-3-ethoxycyclobutyl)-3-(6-fluoropyridin-2-yl)-1H-pyrazol-4-yl)-2-(1H-pyrazol-4-yl)thiazole-4-carboxamide] | 0.0385 | 0.0267 | 
